# Results published in patent US20250312469A1 (CANGET BIOTEKPHARMA, priority 2024, published 2025).
# “And” between values parts separate entries of the source, which are not always exact repeats. Equal values may be shown once.
# Key:
# [1] = tested on: other 109 ubiquitin-related proteins/enzymes; test: ProtoArray protein microarray probed with 3H-FL118; assay type: binding, human
# Experimental: The flask was then immersed in silicone oil bath at 180° C.-190° C. for 6 hours. The tritium gas was removed. The reaction mixture was dissolved in 1 mL of DMSO and back-exchanged 10× with 50% ethanol. Injected directly to CapCeLL PAK C-18 column (4.6×250 mm), mobile phase 30% CH3CN, 0.1% TFA, flow 1 mL/min, U.V. =200 nm, r.t. =40 min. After purification, total activity was 5 mCi (solid) with a specificity of 5.6 Ci/mmol at a radiochemical purity of >97% for ^3H-FL118. […] The flask was then immersed in silicone oil bath at 190° C. for 24 h. The tritium gas was removed. The reaction mixture was dissolved in 1 mL of DMSO and back-exchanged 10× with 50% ethanol and injected directly to CapCeLL Pak C-18 column (4.6×250 mm), mobile phase 30% CH3CN, 0.1% TFA, […], U.V. =200 nm, r.t. =40 min. After purification total activity was 5 mCi (solid) with a specificity of 16.5 Ci/mmol at a radiochemical purity of ≥81% for ^3H-FL118.
# Use of ^3H-FL118 as a radioactive probe to search FL118-binding proteins through screening of human protein microarray (ProtoArray R with 9,400 human proteins, Invitrogen): The study process includes the following steps.
# 1. Blocking the ProtoArray: (i) Immediately place the mailer containing the Human Protein Microarray v5.0 at 4° C. upon removal from storage at −20° C. and equilibrate the mailer at 4° C. for at least 15 minutes prior to use. […]
# [2] = tested on: pancreatic cancer PDX tumor (PDX14244) tissues; test: Ex vivo culture of pancreatic cancer PDX tumor tissue; assay type: cell-based, human; conditions: 7 days
# From the text: Pancreatic cancer patient-derived xenograft (PDX) tumor (PDX14244) in vitro culture and studies: PDX14244 tumors were collected from SCID mice, and the isolated tumors were maintained in PBS solution. Then cut the fresh tumor tissues into many small pieces (e.g., 2×2×2 mm) and the left tumors were frozen for other use. The small pieces of tumor tissues were washed twice in PBS and then added onto the stiff gel prepared at the ratio of gel: PBS=1:1 in the 24-well plate (2-3 pieces per well). […] On day 3, replace the old medium content with freshly prepared same medium content. On day 7, the cultured PDX14244 tumor tissues were taken out and representative images were taken under microscopes, and the tumor tissues were transferred into a fresh 24-well plate and immediately fixed in 10% neutral buffered formalin (NBF) for 24 hours ad then replaced NBF with 70% ethanol for 1-4 days for paraffin embedding to make block cassettes for histology analysis. Tissue blocks were cut and H&E staining for tumor tissue stroma ECM stiffness (desmoplasia) observation.
# TA97a = test: Ames Bacterial Reverse Mutation Assay; conditions: for Background Lawn Code / Colony Counts Average / Colony Counts Replicate 1-3: TA97a
# Experimental: (§1) The Ames Bacterial Reverse Mutation (AB™) used five bacterial tester strains (TA97a, TA98, TA100, TA1535, WP2-uvrA).
# (§2) Tester strains were added to flasks containing nutrient broth and incubated at 37+2° C. overnight. The flasks were removed from the overnight incubation and the final concentration was determined (the OD was measured and determined whether growth was suitable for testing). Top agar was melted, and 2.0 mL was dispensed into heated culture tubes. The S9 mix (metabolic activation) was prepared and stored on ice. […] Each culture tube was vortexed and immediately poured onto the labeled minimal glucose agar plates. All plates were inverted and placed into a 37±1° C. incubator for 48-72 hours. The plates were counted via an automated colony counter or by hand and the background lawn was microscopically evaluated for any signs of toxicity. Genotypic control plates were prepared for each tester strain and incubated for 24-72 hours at 37±1° C.
# TA1535 = test: Ames Bacterial Reverse Mutation Assay
# Experimental: as §1, §2
# [3] = TA1535 partial repeat, 0.010 μM −S9
# [4] = TA1535 partial repeat, 0.10 μM −S9
# [5] = TA1535 partial repeat, 1.0 μM −S9
smiles,measurement,setting,value
CCC1(O)C(=O)OCc2c1cc1n(c2=O)Cc2cc3cc4c(cc3nc2-1)OCO4 (stereo not shown) [FL118],binding to other ubiquitin-related proteins,[1],did not bind
same,cell and stroma spreading from tissue edge,[2],effectively inhibit the pancreatic cancer cells and stroma spreading
same,tumor stroma intensity (H&E),[2],significantly tumor stroma intensity loose
same,bacterial strain mutation,TA97a,does not induce
same,mean revertant colonies over negative control,TA97a; +/− S9,less than 2 fold
same,Background Lawn Code,TA97a; 0.010 μM +S9,1
same,Colony Counts Average,TA97a; 0.010 μM +S9,141
same,Colony Counts Replicate 1-3,TA97a; 0.010 μM +S9,123 and 140 and 161
same,Background Lawn Code,TA97a; 0.010 μM −S9,1
same,Colony Counts Average,TA97a; 0.010 μM −S9,101
same,Colony Counts Replicate 1-3,TA97a; 0.010 μM −S9,108 and 105 and 90
same,Background Lawn Code,TA97a; 0.10 μM +S9,1
same,Colony Counts Average,TA97a; 0.10 μM +S9,172
same,Colony Counts Replicate 1-3,TA97a; 0.10 μM +S9,189 and 150 and 178
same,Background Lawn Code,TA97a; 0.10 μM −S9,1
same,Colony Counts Average,TA97a; 0.10 μM −S9,95
same,Colony Counts Replicate 1-3,TA97a; 0.10 μM −S9,116 and 87 and 82
same,Background Lawn Code,TA97a; 1.0 μM +S9,1
same,Colony Counts Average,TA97a; 1.0 μM +S9,142
same,Colony Counts Replicate 1-3,TA97a; 1.0 μM +S9,140 and 146 and 139
same,Background Lawn Code,TA97a; 1.0 μM −S9,1
same,Colony Counts Average,TA97a; 1.0 μM −S9,119
same,Colony Counts Replicate 1-3,TA97a; 1.0 μM −S9,111 and 113 and 134
same,bacterial strain mutation,TA1535,does not induce
same,Background Lawn Code,"TA1535; TA1535, 0.010 μM +S9",1
same,Colony Counts Average,"TA1535; TA1535, 0.010 μM +S9",14
same,Colony Counts Replicate 1-3,"TA1535; TA1535, 0.010 μM +S9",20 and 9 and 13
same,Background Lawn Code,"TA1535; TA1535, 0.010 μM −S9",1
same,Colony Counts Average,"TA1535; TA1535, 0.010 μM −S9",39
same,Colony Counts Replicate 1-3,"TA1535; TA1535, 0.010 μM −S9",39 and 37 and 41
same,Background Lawn Code,"TA1535; TA1535, 0.10 μM +S9",1
same,Colony Counts Average,"TA1535; TA1535, 0.10 μM +S9",14
same,Colony Counts Replicate 1-3,"TA1535; TA1535, 0.10 μM +S9",13 and 8 and 20
same,Background Lawn Code,"TA1535; TA1535, 0.10 μM −S9",1
same,Colony Counts Average,"TA1535; TA1535, 0.10 μM −S9",61
same,Colony Counts Replicate 1-3,"TA1535; TA1535, 0.10 μM −S9",54 and 62 and 67
same,Background Lawn Code,"TA1535; TA1535, 1.0 μM +S9",1
same,Colony Counts Average,"TA1535; TA1535, 1.0 μM +S9",12
same,Colony Counts Replicate 1-3,"TA1535; TA1535, 1.0 μM +S9",12 and 10 and 15
same,Background Lawn Code,"TA1535; TA1535, 1.0 μM −S9",1
same,Colony Counts Average,"TA1535; TA1535, 1.0 μM −S9",25
same,Colony Counts Replicate 1-3,"TA1535; TA1535, 1.0 μM −S9",23 and 21 and 30
same,Background Lawn Code,TA1535; [3],1
same,Colony Counts Average,TA1535; [3],12
same,Colony Counts Replicate 1-3,TA1535; [3],13 and 12 (2×)
same,Background Lawn Code,TA1535; [4],1
same,Colony Counts Average,TA1535; [4],14
same,Colony Counts Replicate 1-3,TA1535; [4],16 and 15 and 10
same,Background Lawn Code,TA1535; [5],1
same,Colony Counts Average,TA1535; [5],12
same,Colony Counts Replicate 1-3,TA1535; [5],11 and 13 and 12
same,mean revertant colonies over negative control,"TA1535; repeat assay, -S9 condition",less than 2 fold
